The data set can be described thus: Solubility at 25° C. in organic solvents (Example 15). In kind it is physicochemical. As to conditions: organic solvent or mixture.
The mark [1] stands for this setting: chlorobenzene, clorobenzene, read-out: Solubility in clorobenzene.
Setting [2] is: CHCl3, read-out: Solubility in CHCl3.
Setting [3] is: DMF, read-out: Solubility in DMF.
Where [4] appears, read: THF, read-out: Solubility in THF.

Among the data in patent publication US10079346B2, “Heteroaromatic compounds for organic electronics” (BASF SE, priority 2014, dated 2018) are solubility values, retold here.

Values after ≈ are worked out from the molar mass of the structure shown. Like-named read-outs stand apart in the source and are kept apart here. Where only a bound is given, the exact number is not on record here.

As for `CC(C)(C)OC(=O)n1c2c(c3c1=Nc1ccccc1S3)Sc1ccccc1N=2` [Compound 1a], the solubility fell in the range of 5000 to 10000 µg/mL (≈ 12.3 to 24.5 mM) under setting [1], 5000 to 10000 µg/mL (≈ 12.3 to 24.5 mM) under setting [2], 1000 to 5000 µg/mL (≈ 2.45 to 12.3 mM) under setting [3] and 1000 to 5000 µg/mL (≈ 2.45 to 12.3 mM) under setting [4].

Turning to `CCCCCCCCCCCCc1ccc2c(c1)N=c1c(c3c(n1C(=O)OC(C)(C)C)=Nc1cc(CCCCCCCCCCCC)ccc1S3)S2` [Compound 1d], the solubility is greater than 10000 µg/mL under setting [1], greater than 10000 µg/mL under setting [2], greater than 10000 µg/mL under setting [3] and greater than 10000 µg/mL under setting [4].

As to `CCCCCCCc1ccc2c(c1)N=c1c(c3c(n1C(=O)OC(C)(C)C)=Nc1cc(CCCCCCC)ccc1S3)S2` [Compound 1c], the solubility was greater than 10000 µg/mL under setting [1], greater than 10000 µg/mL under setting [2], less than 1000 µg/mL under setting [3] and greater than 10000 µg/mL under setting [4].

For the compound `c1ccc2c(c1)N=c1[nH]c3c(c1S2)Sc1ccccc1N=3` [Compound 2a, reference compound], the solubility runs as follows: under setting [1], less than 1000 µg/mL; under setting [2], less than 1000 µg/mL; under setting [3], less than 1000 µg/mL; under setting [4], less than 1000 µg/mL.

Usually solubility stands for the dissolved amount per volume that the medium holds.
